pIC50: −log10 of the molar value.

In the first test the target is HDM2 (truncated, residues 17 to 125, containing p53 binding surface) (Homo sapiens (Human), UniProt Q00987). The test can be described thus: HDM2 FRET assay (inhibition of binding of FITC labeled p53-site peptide to HDM2). The note with it: Table 16. The text has this: IC50 DETERMINATIONS: Dose-response curves were plotted from the inhibition data, from 10 point serial dilutions of inhibitory compounds. Concentration of compound was plotted against em520/Cem495 ratio signal. To generate IC50 values, the dose-response curves were fitted to a standard sigmoidal curve and IC50 values were derived by nonlinear regression analysis.
Sequence of HDM2 (truncated, residues 17 to 125, containing p53 binding surface) (Q00987 17-125): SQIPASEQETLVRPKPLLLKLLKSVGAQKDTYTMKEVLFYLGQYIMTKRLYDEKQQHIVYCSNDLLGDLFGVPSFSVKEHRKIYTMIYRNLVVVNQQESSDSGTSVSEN
The term pIC50 denotes the negative decadic logarithm of the IC50, by convention in mol/L. The low end stands for a large IC50, the high end for a small IC50. With `C[C@H]1CC[C@H](Cn2c(N3CCOC4CCCCC43)nc3nc(-c4noc(=O)[nH]4)nc(-c4cncc(Cl)c4)c32)CC1` (single isomer, unassigned) [Example 16.52, 3-[6-(5-chloropyridin-3-yl)-7-[(trans-4-methylcyclohexyl)methyl]-8-(octahydro-4H-1,4-benzoxazin-4-yl)-7H-purin-2-yl]-1,2,4-oxadiazol-5(4H)-one], the pIC50 is 9.00.

Take `C[C@H]1CC[C@H](Cn2c(N3CCOC4CCCCC43)nc3nc(-c4noc(=O)[nH]4)nc(-c4cccc(Cl)c4)c32)CC1` (single isomer, unassigned) [Example 16.78, 3-(6-(3-chlorophenyl)-7-[(trans-4-methylcyclohexyl)methyl]-8-(octahydro-4H-1,4-benzoxazin-4-yl)-7H-purin-2-yl]-1,2,4-oxadiazol-5(4H)-one]: the negative-log IC50 (pIC50) was 8.86.

Turning to `COC(C)(C)C1CCCN1c1nc2nc(-c3noc(=O)[nH]3)nc(-c3cncc(Cl)c3)c2n1C[C@H]1CC[C@H](C)CC1` (single isomer, unassigned) [Example 16.72, 3-{6-(5-chloropyridin-3-yl)-8-[2-(1-methoxy-1-methylethyl)pyrrolidin-1-yl]-7-[(trans-4-methylcyclohexyl)methyl]-7H-purin-2-yl}-1,2,4-oxadiazol-5(4H)-one], the pIC50 is 9.01.

`C[C@H]1CC[C@H](Cn2c(N3CCOC4CCCCC43)nc3nc(-c4noc(=O)[nH]4)nc(-c4cccc(Cl)c4)c32)CC1` (single isomer, unassigned) [Example 16.77, 3-(6-(3-chlorophenyl)-7-[(trans-4-methylcyclohexyl)methyl]-8-(octahydro-4H-1,4-benzoxazin-4-yl)-7H-purin-2-yl]-1,2,4-oxadiazol-5(4H)-one] showed a pIC50 of 7.53.

The compound `Cc1noc(C2CCCN2c2nc3nc(C(=O)O)nc(-c4cncc(Cl)c4)c3n2C[C@H]2CC[C@H](C)CC2)n1` (mixture of isomers) [Example 16.145, 6-(5-chloropyridin-3-yl)-7-[(trans-4-methylcyclohexyl)methyl]-8-[2-(3-methyl-1,2,4-oxadiazol-5-yl)pyrrolidin-1-yl]-7H-purine-2-carboxylic acid] showed a negative-log IC50 (pIC50) of 8.41.

As for `C[C@H]1CC[C@H](Cn2c(N3CCOC4CCCCC43)nc3nc(-c4noc(=O)[nH]4)nc(-c4cncc(Cl)c4)c32)CC1` (single isomer, unassigned) [Example 16.51, 3-[6-(5-chloropyridin-3-yl)-7-[(trans-4-methylcyclohexyl)methyl]-8-(octahydro-4H-1,4-benzoxazin-4-yl)-7H-purin-2-yl]-1,2,4-oxadiazol-5(4H)-one], the negative-log IC50 (pIC50) was 7.52.

For `Cc1noc(C2CCCN2c2nc3nc(-c4noc(=O)[nH]4)nc(-c4cncc(Cl)c4)c3n2C[C@H]2CC[C@H](C)CC2)n1` (mixture of isomers) [Example 16.143, 3-{6-(5-chloropyridin-3-yl)-7-[(trans-4-methylcyclohexyl)methyl]-8-[2-(3-methyl-1,2,4-oxadiazol-5-yl)pyrrolidin-1-yl]-7H-purin-2-yl}-1,2,4-oxadiazol-5(4H)-one], the pIC50 was 8.83.

Take `COC(C)(C)C1CCCN1c1nc2nc(-c3n[nH]c(=O)o3)nc(-c3cccc(Cl)c3)c2n1C[C@H]1CC[C@H](C)CC1` (single isomer, unassigned) [Example 16.70, 5-{6-(3-chlorophenyl)-8-[2-(1-methoxy-1-methylethyl)pyrrolidin-1-yl]-7-[(trans-4-methylcyclohexyl)methyl]-7H-purin-2-yl}-1,3,4-oxadiazol-2(3H)-one]: the pIC50 was 8.64.

In the case of `Cc1noc(C2CCCN2c2nc3nc(-c4n[nH]c(=O)o4)nc(-c4cncc(Cl)c4)c3n2C[C@H]2CC[C@H](C)CC2)n1` (mixture of isomers) [Example 16.146, 5-{6-(5-chloropyridin-3-yl)-7-[(trans-4-methylcyclohexyl)methyl]-8-[2-(3-methyl-1,2,4-oxadiazol-5-yl)pyrrolidin-1-yl]-7H-purin-2-yl}-1,3,4-oxadiazol-2(3H)-one], the negative-log IC50 (pIC50) is 8.52.

The same test, now with this note: Table 18.
With `CC([C@H]1CC[C@H](C)CC1)n1c(N2CCOC3CCCC32)nc2nc(-c3noc(=O)[nH]3)nc(-c3cncc(Cl)c3)c21` (single isomer, unassigned) [Example 18.52, 3-{6-(5-chloropyridin-3-yl)-8-(hexahydrocyclopenta[b][1,4]oxazin-4(4aH)-yl)-7-[1-(trans-4-methylcyclohexyl)ethyl]-7H-purin-2-yl}-1,2,4-oxadiazol-5(4H)-one], the negative-log IC50 (pIC50) is 8.26.

As for `CC([C@H]1CC[C@H](C)CC1)n1c(N2CCOC3CCCC32)nc2nc(-c3noc(=O)[nH]3)nc(-c3cccc(Cl)c3)c21` (single isomer, unassigned) [Example 18.40, 3-{6-(3-chlorophenyl)-8-(hexahydrocyclopenta[b][1,4]oxazin-4(4aH)-yl)-7-[1-(trans-4-methylcyclohexyl)ethyl]-7H-purin-2-yl}-1,2,4-oxadiazol-5(4H)-one], the negative logarithm of the IC50 (pIC50) is 8.10.

Staying with this test, now noted: Table 23.
Compound `COC(c1nc2nc(-c3n[nH]c(=O)o3)nc(-c3cccc(Cl)c3)c2n1C[C@H]1CC[C@H](C)CC1)C1CCOCC1` (mixture of isomers) [Example 23.16, 5-{6-(3-chlorophenyl)-8-[methoxy(tetrahydro-2H-pyran-4-yl)methyl]-7-[(trans-4-methylcyclohexyl)methyl]-7H-purin-2-yl}-1,3,4-oxadiazol-2(3H)-one] gave a pIC50 of 7.91.

`COC(c1nc2nc(-c3n[nH]c(=O)o3)nc(-c3cncc(Cl)c3)c2n1C[C@H]1CC[C@H](C)CC1)C1CCCC1` (mixture of isomers) [Example 23.23, 5-{6-(5-chloropyridin-3-yl)-8-[cyclopentyl(methoxy)methyl]-7-[(trans-4-methylcyclohexyl)methyl]-7H-purin-2-yl}-1,3,4-oxadiazol-2(3H)-one] showed a negative-log IC50 (pIC50) of 8.06.

Turning to `CC(c1c(F)cccc1F)c1nc2nc(-c3noc(=O)[nH]3)nc(-c3cncc(Cl)c3)c2n1C[C@H]1CC[C@H](C)CC1` (mixture of isomers) [Example 23.115, 3-{6-(5-chloropyridin-3-yl)-8-[1-(2,6-difluorophenyl)ethyl]-7-[(trans-4-methylcyclohexyl)methyl]-7H-purin-2-yl}-1,2,4-oxadiazol-5(4H)-one], the pIC50 was 8.65.

`COC(c1nc2nc(-c3n[nH]c(=O)o3)nc(-c3cncc(Cl)c3)c2n1C[C@H]1CC[C@H](C)CC1)C1CCOCC1` (mixture of isomers) [Example 23.20, 5-{6-(5-chloropyridin-3-yl)-8-[methoxy(tetrahydro-2H-pyran-4-yl)methyl]-7-[(trans-4-methylcyclohexyl)methyl]-7H-purin-2-yl}-1,3,4-oxadiazol-2(3H)-one] showed a pIC50 of 7.56.

On to `CC(F)(c1c(F)cccc1F)c1nc2nc(-c3n[nH]c(=O)o3)nc(-c3cncc(Cl)c3)c2n1C[C@H]1CC[C@H](C)CC1` (single isomer, unassigned) [Example 23.80, 5-{6-(5-chloropyridin-3-yl)-8-[1-(2,6-difluorophenyl)-1-fluoroethyl]-7-[(trans-4-methylcyclohexyl)methyl]-7H-purin-2-yl}-1,3,4-oxadiazol-2(3H)-one], for which the negative-log IC50 (pIC50) was 7.97.

In turn, `COC(C)(c1ncoc1C)c1nc2nc(-c3noc(=O)[nH]3)nc(-c3cccc(Cl)c3)c2n1C[C@H]1CC[C@H](C)CC1` (mixture of isomers) [Example 23.57, 3-{6-(3-chlorophenyl)-8-[1-methoxy-1-(5-methyl-1,3-oxazol-4-yl)ethyl]-7-[(trans-4-methylcyclohexyl)methyl]-7H-purin-2-yl}-1,2,4-oxadiazol-5(4H)-one] gave a pIC50 of 8.68.

Compound `COC(C)(c1cccc(Cl)c1F)c1nc2nc(-c3n[nH]c(=O)o3)nc(-c3cncc(Cl)c3)c2n1C[C@H]1CC[C@H](C)CC1` (single isomer, unassigned) [Example 23.73, 5-{8-[1-(3-chloro-2-fluorophenyl)-1-methoxyethyl]-6-(5-chloropyridin-3-yl)-7-[(trans-4-methylcyclohexyl)methyl]-7H-purin-2-yl}-1,3,4-oxadiazol-2(3H)-one] showed a pIC50 of 9.21.

Consider `COC(C)(c1c(F)cccc1F)c1nc2nc(-c3n[nH]c(=O)o3)nc(-c3cncc(Cl)c3)c2n1C[C@H]1CC[C@H](C)CC1` (single isomer, unassigned) [Example 23.88, 5-{6-(5-chloropyridin-3-yl)-8-[1-(2,6-difluorophenyl)-1-methoxyethyl]-7-[(trans-4-methylcyclohexyl)methyl]-7H-purin-2-yl}-1,3,4-oxadiazol-2(3H)-one], for which the negative-log IC50 (pIC50) is 9.22.

With `CC1CCCCC1(F)c1nc2nc(-c3n[nH]c(=O)o3)nc(-c3cncc(Cl)c3)c2n1C[C@H]1CC[C@H](C)CC1` (single isomer, unassigned) [Example 23.83, 5-{6-(5-chloropyridin-3-yl)-8-(1-fluoro-2-methylcyclohexyl)-7-[(trans-4-methylcyclohexyl)methyl]-7H-purin-2-yl}-1,3,4-oxadiazol-2(3H)-one], the negative-log IC50 (pIC50) was 8.20.

With `CC(F)(c1nc2nc(-c3n[nH]c(=O)o3)nc(-c3cncc(Cl)c3)c2n1C[C@H]1CC[C@H](C)CC1)C1CCCC1` (mixture of isomers) [Example 23.58, 5-{6-(5-chloropyridin-3-yl)-8-(1-cyclopentyl-1-fluoroethyl)-7-[(trans-4-methylcyclohexyl)methyl]-7H-purin-2-yl}-1,3,4-oxadiazol-2(3H)-one], the negative logarithm of the IC50 (pIC50) was 8.71.

As for `COC(C)(c1c(F)cccc1F)c1nc2nc(-c3n[nH]c(=O)o3)nc(-c3cncc(Cl)c3)c2n1C[C@H]1CC[C@H](C)CC1` (single isomer, unassigned) [Example 23.89, 5-{6-(5-chloropyridin-3-yl)-8-[1-(2,6-difluorophenyl)-1-methoxyethyl]-7-[(trans-4-methylcyclohexyl)methyl]-7H-purin-2-yl}-1,3,4-oxadiazol-2(3H)-one], the pIC50 is 8.29.

Compound `COC(C)(c1nc2nc(-c3noc(=O)[nH]3)nc(-c3cncc(Cl)c3)c2n1C[C@H]1CC[C@H](C)CC1)C1CCCC1` (mixture of isomers) [Example 23.71, 3-{6-(5-chloropyridin-3-yl)-8-(1-cyclopentyl-1-methoxyethyl)-7-[(trans-4-methylcyclohexyl)methyl]-7H-purin-2-yl}-1,2,4-oxadiazol-5(4H)-one] gave a pIC50 of 8.89.
